Source: patent US9212151B2, “Heterocyclic compounds useful for kinase inhibition” (Amitech Therapeutic Solutions, Inc., priority 2010, dated 2015)

Assay: MTT cell viability assay, compounds at 5, 1 and 0.2 μM, 48 hours
Format: cell-based
Conditions: human, A549 tumor cells
Method in brief: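 A549 cells were seeded at 2500/well in DMEM + 10% FBS, grown overnight, then exposed to compound for 48 h. Viability was read by MTT (5 mg/ml, 4 h), with formazan dissolved in DMSO and absorbance measured at 560/570 nm to give survival rate.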

Row | SMILES | viability at 48 h, 0.2 µM [%] | viability at 48 h, 1 µM [%] | viability at 48 h, 5 µM [%]
1 | Cc1cc(Oc2cccc(-c3nnc(Nc4cccc(C(F)(F)F)c4)[nH]3)c2)nc(N)n1 [Compound 54] | > 70 | < 50 | < 50
2 | COc1ccc(Nc2nnc(-c3cccc(C(F)(F)F)c3)[nH]2)cc1 [Compound 183] | > 70 | > 70 | > 70
3 | Nc1nccc(Oc2ccc(-c3nnc(Nc4cccc(C(F)(F)F)c4)[nH]3)cc2)n1 [Compound 1] | > 70 | 50 to 70 | 50 to 70
4 | CNC(=O)CSc1nc(N)cc(Oc2ccc(-c3nnc(Nc4cccc(C(F)(F)F)c4)[nH]3)cc2)n1 [Compound 117] | > 70 | > 70 | > 70
5 | CSc1nc(N)cc(Oc2ccc(Nc3nnc(-c4cccc(C(F)(F)F)c4)[nH]3)cc2)n1 [Compound 176] | > 70 | > 70 | > 70
6 | CSc1nc(N)cc(Oc2cccc(-c3nnc(Nc4cccc(C(F)(F)F)c4)[nH]3)c2)n1 [Compound 14] | 50 to 70 | 50 to 70 | 50 to 70
7 | COc1ccc2c(Oc3ccc(Nc4nnc(-c5cccc(C(F)(F)F)c5)[nH]4)cc3)ccnc2c1 [Compound 175] | > 70 | > 70 | > 70
8 | CSc1nc(Oc2cccc(-c3nnc(Nc4cccc(C(F)(F)F)c4)[nH]3)c2)c2cc[nH]c2n1 [Compound 56] | > 70 | > 70 | > 70
9 | CSc1nc(N)cc(Oc2ccc(-c3nnc(Nc4cccc(C(=O)O)c4)[nH]3)cc2)n1 [Compound 153] | > 70 | > 70 | > 70
10 | Nc1cc(Oc2cccc(-c3nnc(Nc4cccc(C(F)(F)F)c4)o3)c2)ccn1 [Compound 38] | > 70 | > 70 | > 70
11 | CSc1nc(N)cc(Oc2cccc(-c3nnc(Nc4cccc(C(F)(F)F)c4)s3)c2)n1 [Compound 48] | > 70 | > 70 | > 70
12 | COc1ccc2nccc(Oc3ccc(-c4nnc(Nc5cccc(C(F)(F)F)c5)[nH]4)cc3)c2c1 [Compound 185] | > 70 | > 70 | > 70
13 | N#Cc1ccc2c(Oc3ccc(-c4nnc(Nc5cccc(C(F)(F)F)c5)[nH]4)cc3)ccnc2c1 [Compound 189] | > 70 | > 70 | > 70
14 | FC(F)(F)c1cccc(Nc2nnc(-c3cccc(Oc4ccnc5ccccc45)c3)[nH]2)c1 [Compound 23] | > 70 | > 70 | > 70
15 | FC(F)(F)c1cccc(Nc2nnc(-c3ccc(Oc4cc(Cl)ccn4)cc3)[nH]2)c1 [Compound 5] | > 70 | > 70 | > 70
16 | Nc1cc(Oc2ccc(-c3nnc(Nc4cccc(C(F)(F)F)c4)o3)cc2)ncn1 [Compound 28] | > 70 | > 70 | > 70
17 | COc1cc(Oc2cccc(-c3nnc(Nc4cccc(C(F)(F)F)c4)[nH]3)c2)ccn1 [Compound 90] | > 70 | > 70 | > 70
18 | FC(F)(F)c1cccc(Nc2nnc(-c3ccc(Oc4nccc5ccccc45)cc3)[nH]2)c1 [Compound 149] | > 70 | > 70 | 50 to 70
19 | CSc1nc(N)cc(Oc2ccc(-c3nnc(Nc4cccc(C(F)(F)F)c4)s3)cc2)n1 [Compound 44] | > 70 | > 70 | > 70
20 | Nc1cc(Oc2ccc(-c3nnc(Nc4cccc(C(F)(F)F)c4)o3)cc2)nc(N)n1 [Compound 24] | > 70 | > 70 | > 70
21 | FC(F)(F)c1cccc(Nc2nnc(-c3ccc(Oc4ccnc(Cl)c4)cc3)[nH]2)c1 [Compound 6] | > 70 | 50 to 70 | < 50
22 | COCCCNc1cc(Oc2ccc(-c3nnc(Nc4cccc(C(F)(F)F)c4)[nH]3)cc2)nc(SC)n1 [Compound 145] | > 70 | > 70 | < 50
23 | CSc1nc(N)cc(Oc2ccc(-c3nnc(Nc4cccc(C(F)(F)F)c4)o3)cc2)n1 [Compound 25] | < 50 | < 50 | < 50
24 | CSc1nc(N)cc(Oc2ccc(-c3nnc(Nc4cccc(C)c4)[nH]3)cc2)n1 [Compound 65] | > 70 | > 70 | 50 to 70
